Laboratory results from the supplement of paper PMC10307832.

Legend:
Assay in all cases: relative viability (nuclei count vs DMSO), 5 days (fraction); higher = more cells survive
MK-8033 + Luminespib = compound: Cn1cc(-c2cnc3ccc4ccc(CS(=O)(=O)NCc5ccccn5)cc4c(=O)c3c2)cn1 [MK-8033] + CCNC(=O)c1noc(-c2cc(C(C)C)c(O)cc2O)c1-c1ccc(CN2CCOCC2)cc1 [Luminespib] (partner 0.01 µM)
How it was run: (§1)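 Lung cancer cell lines were pin-tool dosed in 1536-well plates on the day after seeding, with either a lone drug or a fixed anchor-drug dose plus five library-drug doses (not always all listed) in √10 steps. Nuclei were counted on 4× images after 5 days. Relative viability is the ratio of treated-well to vehicle-well nuclei counts, with each value a median of duplicate plates.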

RU-SKI 43 + Crizotinib = compound: CC[C@@H](C)CNCC(=O)N1CCC2=C([C@@H]1COC3=CC=CC(=C3)C)C=CS2 [RU-SKI 43] + C[C@@H](Oc1cc(-c2cnn(C3CCNCC3)c2)cnc1N)c1c(Cl)ccc(F)c1Cl [Crizotinib] (partner 1 µM)
How it was run: as §1

RU-SKI 43 + Bortezomib = compound: CC[C@@H](C)CNCC(=O)N1CCC2=C([C@@H]1COC3=CC=CC(=C3)C)C=CS2 [RU-SKI 43] + CC(C)C[C@H](NC(=O)[C@H](Cc1ccccc1)NC(=O)c1cnccn1)B(O)O [Bortezomib] (partner 0.002 µM)
How it was run: as §1

Irinotecan + Decitabine = compound: CCc1c2c(nc3ccc(OC(=O)N4CCC(N5CCCCC5)CC4)cc13)-c1cc3c(c(=O)n1C2)COC(=O)[C@]3(O)CC [Irinotecan] + Nc1ncn([C@H]2C[C@H](O)[C@@H](CO)O2)c(=O)n1 [Decitabine] (partner 2 µM)
How it was run: as §1

Cell Line	relative viability (MK-8033 + Luminespib; first compound 0.02 µM)	relative viability (MK-8033 + Luminespib; first compound 0.06325 µM)	relative viability (MK-8033 + Luminespib; first compound 0.2 µM)	relative viability (MK-8033 + Luminespib; first compound 0.6325 µM)	relative viability (MK-8033 + Luminespib; first compound 2 µM)	relative viability (RU-SKI 43 + Crizotinib; first compound 0.1 µM)	relative viability (RU-SKI 43 + Crizotinib; first compound 0.3162 µM)	relative viability (RU-SKI 43 + Crizotinib; first compound 1 µM)	relative viability (RU-SKI 43 + Crizotinib; first compound 3.162 µM)	relative viability (RU-SKI 43 + Crizotinib; first compound 10 µM)	relative viability (RU-SKI 43 + Bortezomib; first compound 0.1 µM)	relative viability (RU-SKI 43 + Bortezomib; first compound 0.3162 µM)	relative viability (RU-SKI 43 + Bortezomib; first compound 1 µM)	relative viability (RU-SKI 43 + Bortezomib; first compound 3.162 µM)	relative viability (RU-SKI 43 + Bortezomib; first compound 10 µM)	relative viability (Irinotecan + Decitabine; first compound 0.6325 µM)	relative viability (Irinotecan + Decitabine; first compound 2 µM)	relative viability (Irinotecan + Decitabine; first compound 6.325 µM)	relative viability (Irinotecan + Decitabine; first compound 20 µM)
NCI-H2023	0.758	0.652	0.652	0.693	0.634	0.623	0.685	0.602	0.58	0.428	0.88	1.21	1.04	1.15	0.932	0.264	0.209	0.141	0.0603
NCI-H1563	0.491	0.589	0.541	0.483	0.539	0.789	0.773	0.825	0.836	0.734	0.882	0.828	0.888	0.797	0.797				
LCLC-103H	0.95	0.927	0.954	0.866	0.952	1.08	1.12	1.08	1.09	0.926	0.969	1.09	1.31	1.1	0.985	0.63	0.524	0.458	0.432
HCC-15	0.281	0.397	0.263	0.253	0.307	0.806	1.01	0.962	0.873	0.807	1.12	1.28	1.2	1.08	1.11	0.363	0.45	0.381	0.14
NCI-H838	0.248	0.292	0.335	0.296	0.273	0.904	0.98	0.826	0.794	0.75	0.718	0.955	0.912	0.748	0.992	0.444	0.47	0.277	0.18
NCI-H2009	0.987	0.921	0.978	0.999	1	1.07	1.06	1.06	1.03	0.905	1.05	1.02	1.01	1.12	0.968	0.358	0.32	0.266	0.135
NCI-H2228	0.178	0.0977	0.163	0.161	0.208	0.498	0.416	0.448	0.579	0.306	1.19	1.26	0.937	1.98	0.941				
NCI-H460	0.0295	0.038	0.0269	0.0415	0.0328	0.869	1.2	0.91	1.01	0.551	1.23	1.8	1.53	1.25	1.03	0.353	0.317	0.106	0.0426
NCI-H522	0.987	1.02	0.955	1.29	0.946											0.605	0.492	0.577	0.636
NCI-H1703							0.734	0.61	0.594	0.381	0.345	0.227	0.371	0.282	0.227				
NCI-H1793	0.174	0.217	0.161	0.209	0.162												0.315	0.262	0.258
NCI-H596	1.02	0.987	0.802	1.01	0.946	0.998	0.904	0.987	1.06	1.03	1.32	0.93	1.34	0.936	1.1	1.06	0.842	0.85	1.49
NCI-H2347	0.362	0.277	0.473	0.408	0.556	0.745	0.568	0.778	0.67	0.735	0.951	1.16	1.01	0.976	0.994	0.652	0.626	0.599	0.547
NCI-H358	0.417	0.236	0.235	0.296	0.213	0.604	0.484	0.512	0.578	0.35						0.183	0.193	0.154	0.0968
LK-2	0.172		0.265	0.187	0.26	0.206	0.219	0.256		0.199						0.285	0.379	0.226	0.216
NCI-H1944	0.742	0.62	0.708	0.719	0.653	1.17	1.19	1.25	1.25	0.991						0.323	0.206	0.149	0.151
NCI-H1648																0.501	0.469	0.446	0.428
NCI-H1299						0.947	1.12	0.995	1.01	0.957	0.985	1.04	1.06	1.05	1.02				
HCC-366						0.454	0.392	0.548	0.486	0.27	1.11	1.39	1.24	1.24	1.07	0.341	0.212	0.104	0.0739
IA-LM						0.759	0.797	0.663	0.736	0.64	0.798	0.759	1.12	0.912	0.745				
SW 900	0.147	0.175	0.177	0.18	0.187												0.4	0.354	0.367
NCI-H2342	0.774	0.643	0.805	0.631	0.651											0.732	0.789	0.68	0.436
A549						0.775	1.12	0.847	0.71	0.52							0.26	0.197	0.0737
